# From the supplement of paper PMC9663587
# Experiments:
# Assay in all cases: GRmax, 72 h; higher = less effect;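 note: breast cell lines in 384-well plates, nine doses across a 10^4 range, Dye Drop imaging of viable cells vs DMSO and time-zero plates, GR 0 means no net growth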
# HCC1954 = system: HCC1954
# HS578T = system: HS578T
# MDAMB468 = system: MDAMB468
# ZR7530 = system: ZR7530
# T47D = system: T47D
# EFM19 = system: EFM19
# HCC1187 = system: HCC1187
# MCF10A = system: MCF10A
# SUM229PE = system: SUM229PE
# SUM190PT = system: SUM190PT
# CAL120 = system: CAL120
# SKBR3 = system: SKBR3
# MCF12A = system: MCF12A
Compound,"GRmax, 72 h (HCC1954) [GR]","GRmax, 72 h (HS578T) [GR]","GRmax, 72 h (MDAMB468) [GR]","GRmax, 72 h (ZR7530) [GR]","GRmax, 72 h (T47D) [GR]","GRmax, 72 h (EFM19) [GR]","GRmax, 72 h (HCC1187) [GR]","GRmax, 72 h (MCF10A) [GR]","GRmax, 72 h (SUM229PE) [GR]","GRmax, 72 h (SUM190PT) [GR]","GRmax, 72 h (CAL120) [GR]","GRmax, 72 h (SKBR3) [GR]","GRmax, 72 h (MCF12A) [GR]","GRmax, 72 h (HCC1954; main component drawn) [GR]","GRmax, 72 h (HS578T; main component drawn) [GR]","GRmax, 72 h (MDAMB468; main component drawn) [GR]","GRmax, 72 h (T47D; main component drawn) [GR]","GRmax, 72 h (MCF10A; main component drawn) [GR]","GRmax, 72 h (CAL120; main component drawn) [GR]","GRmax, 72 h (SKBR3; main component drawn) [GR]"
C[C@@H]1COCCN1c1cc(C2([S@](C)(=N)=O)CC2)nc(-c2cc[nH]c3nccc2-3)n1 [AZD6738] (max 10 µM),0.15,0.0076,0.529,0.61,0.745,0.845,-0.332,0.442,-0.0688,-0.036,0.783,-0.0886,-0.0672,,,,,,,
NC(=O)Nc1cc(-c2cccc(F)c2)sc1C(=O)N[C@H]1CCCNC1 [AZD7762] (max 10 µM),-0.398,-0.598,-0.586,0.0949,-0.0573,-0.149,-0.691,-0.18,-0.357,-0.341,-0.495,-0.451,-0.211,,,,,,,
Cc1nc(NC(=O)N2CCC[C@H]2C(N)=O)sc1-c1ccnc(C(C)(C)C(F)(F)F)c1 [Alpelisib/BYL719] (max 10 µM),-0.341,0.531,0.714,-0.0068,-0.0332,-0.151,0.608,0.579,0.523,0.532,0.608,-0.143,0.825,,,,,,,
CN(C)C/C=C/C(=O)Nc1ccc(O[C@@H]2CCC[C@@H](Nc3ncc(Cl)c(-c4c[nH]c5ccccc45)n3)C2)cc1 [BSJ-01-175] (max 10 µM),-0.652,-0.694,-0.617,-0.943,-0.719,-0.322,-0.827,-0.566,-0.77,-0.545,-0.272,-0.769,-0.292,,,,,,,
CC(=O)c1c(C)c2cnc(Nc3ccc(N4CCN(CCOCCOCCOCCNC(=O)COc5cccc6c5C(=O)N(C5CCC(=O)NC5=O)C6=O)CC4)cn3)nc2n(C2CCCC2)c1=O (stereo not drawn) [BSJ-03-123] (max 10 µM),0.0033,-0.263,-0.0298,-0.258,0.0948,0.156,-0.518,-0.113,0.132,-0.279,0.239,-0.347,0.129,,,,,,,
CC(C)Nc1cc(-c2c[nH]c(C(=O)N[C@H](CO)c3cccc(Cl)c3)c2)c(Cl)cn1 [BVD523] (max 10 µM),0.264,0.259,0.402,0.562,0.217,0.798,0.649,0.185,0.265,0.237,0.482,0.34,0.104,,,,,,,
Cc1c(N)nc([C@H](CC(N)=O)NC[C@H](N)C(N)=O)nc1C(=O)N[C@H](C(=O)N[C@H](C)[C@@H](O)[C@H](C)C(=O)N[C@H](C(=O)NCCc1nc(-c2nc(C(=O)NCCC[S+](C)C)cs2)cs1)[C@@H](C)O)[C@@H](OC1OC(CO)C(O)C(O)C1OC1OC(CO)C(O)C(OC(N)=O)C1O)c1cnc[nH]1 (stereo partly drawn) [Bleomycin] (max 10 µM),,,,,,,,,,,,,,-0.0884,-0.197,-0.21,-0.084,0.0378,0.0886,0.187
Nc1cc(C(F)(F)F)c(-c2cc(N3CCOCC3)nc(N3CCOCC3)n2)cn1 [Buparlisib/NVP-BKM120] (max 10 µM),-0.458,-0.343,-0.516,-0.408,-0.418,-0.356,-0.608,-0.16,-0.285,-0.342,-0.272,-0.373,-0.113,,,,,,,
